{"source": "patent US20260191244A1", "about": "“NOVEL FLAVOR COMPOUNDS” (INTERNATIONAL FLAVORS & FRAGRANCES INC., priority 2022, published 2026)", "key": {"[1]": {"assay": "Flavor evaluation in Ribotide solution (1000 ppm)", "conditions": "2 ppm added in Ribotide solution (1000 ppm)", "description": "The Structure A4 and B4 mixture of 50:50 ratio ([…]) was further evaluated in Ribotide® (1000 ppm)."}, "[2]": {"assay": "Flavor evaluation in monosodium glutamate (MSG) solution (5000 ppm)", "description": "A monosodium glutamate (MSG) solution (5000 ppm) was prepared in water. The flavor profile of the MSG solution with added Structure A4 is reported in the following:\nAs used herein, the term “synergistic umami” refers to the umami effect of the Structure A4 and MSG combination that is stronger than the added umami effect of individual Structure A4 and MSG. […]"}, "[3]": {"assay": "Summary statements over all flavor evaluations"}, "[4]": {"assay": "Flavor evaluation of water solutions", "conditions": "for Flavor Profile: water solution", "description": "A series of water solutions of N-(4-methoxyphenyl)-2-methyl-2-(1-methylcyclohexyl)propenamide (Structure A4) were prepared and evaluated for flavor. The flavor profile is reported in the following:\nPreparation and Evaluation of N-(4-Methoxyphenyl)-2-methyl-2-(1-methylcyclohexyl)propenamide (Structure A4) and 1-(tert-Butyl)-N-(4-methoxyphenyl)cyclohexane-1-carboxamide (Structure B4) Mixtures of Different Ratios: Mixtures of N-(4-methoxyphenyl)-2-methyl-2-(1-methylcyclohexyl)propenamide (Structure A4) and 1-(tert-butyl)-N-(4-methoxyphenyl)cyclohexane-1-carboxamide (Structure B4) were prepared by mixing two compounds at different ratios. “Ratio” refers to the weight ratio of Structure A4 and Structure B4. Water solutions of the mixtures (375 ppb) were prepared and evaluated for flavor in water, MSG solution (5000 ppm) and a salt solution (containing NaCl of 3750 ppm, Ribotide® of 35 ppm and MSG of 840 ppm), respectively. Water, MSG solution and the salt solution were each used as base controls."}}, "data": [{"smiles": "COc1ccc(NC(=O)C(C)(C)C2(C)CCCCC2)cc1", "note": "[Structure A4, N-(4-Methoxyphenyl)-2-methyl-2-(1-methylcyclohexyl)propenamide]", "values": [{"measurement": "Synergistic umami in Ribotide solution", "setting": "[1]", "result": "synergistic umami was also achieved"}, {"measurement": "Umami Strength", "setting": "[2]; MSG solution (5000 ppm) with added Structure A4 1 ppm", "result": "Synergistic umami of Structure A4 and MSG, lingering umami"}, {"measurement": "Umami Strength", "setting": "[2]; MSG solution (5000 ppm) with added Structure A4 2 ppm", "result": "Synergistic umami of Structure A4 and MSG, lingering umami"}, {"measurement": "Umami Strength", "setting": "[2]; MSG solution (5000 ppm) with added Structure A4 5 ppm", "result": "Synergistic umami of Structure A4 and MSG, strong cooling"}, {"measurement": "Umami Strength", "setting": "[2]; MSG solution (5000 ppm) with added Structure A4 10 ppm", "result": "Synergistic umami of Structure A4 and MSG, strong cooling"}, {"measurement": "Umami Strength", "setting": "[2]; MSG solution (5000 ppm) with added Structure A4 15 ppm", "result": "Synergistic umami of Structure A4 and MSG, strong cooling"}, {"measurement": "Umami Strength", "setting": "[2]; MSG solution (5000 ppm) with added Structure A4 100 ppb", "result": "Added effect of Structure A4 and MSG"}, {"measurement": "Umami Strength", "setting": "[2]; MSG solution (5000 ppm) with added Structure A4 200 ppb", "result": "Synergistic umami of Structure A4 and MSG, lingering umami"}, {"measurement": "Umami Strength", "setting": "[2]; MSG solution (5000 ppm) with added Structure A4 375 ppb", "result": "Synergistic umami of Structure A4 and MSG, lingering umami"}, {"measurement": "Umami Strength", "setting": "[2]; MSG solution (5000 ppm) with added Structure A4 500 ppb", "result": "Synergistic umami of Structure A4 and MSG, lingering umami"}, {"measurement": "Umami Strength", "setting": "[2]; MSG solution (5000 ppm) with added Structure A4 750 ppb", "result": "Synergistic umami of Structure A4 and MSG, lingering umami"}, {"measurement": "Synergistic umami with MSG", "setting": "[2]; Structure A4 ranging from 200 ppb to 15 ppm and MSG (5000 ppm)", "result": "Synergistic umami was achieved"}, {"measurement": "Umami character", "setting": "[3]; in all evaluations", "result": "provided upfront and lingering umami character"}, {"measurement": "Synergistic umami", "setting": "[3]; when combined with Structure B4 and/or an additional umami compound", "result": "achieved synergistic umami"}, {"measurement": "Flavor Profile", "setting": "[4]; Structure A4 1 ppm", "result": "Strong umami, cooling, tingly, tongue scratching"}, {"measurement": "Flavor Profile", "setting": "[4]; Structure A4 2 ppm", "result": "Strong and lingering umami, good mouthfeel, cooling, tingling"}, {"measurement": "Flavor Profile", "setting": "[4]; Structure A4 5 ppm", "result": "Strong and lingering umami, moderate and lingering cooling, lingering bitter, drying"}, {"measurement": "Flavor Profile", "setting": "[4]; Structure A4 10 ppm", "result": "Moderate umami, moderate cooling, lingering bitter, tingling, brackish linger"}, {"measurement": "Flavor Profile", "setting": "[4]; Structure A4 15 ppm", "result": "Moderate umami, moderate cooling, lingering bitter, creamy, mineral, drying"}, {"measurement": "Flavor Profile", "setting": "[4]; Structure A4 100 ppb", "result": "Very slight bitter, minimal cooling, drying linger, minimal umami"}, {"measurement": "Flavor Profile", "setting": "[4]; Structure A4 200 ppb", "result": "Slight cooling, slight bitter, drying, very slight umami"}, {"measurement": "Flavor Profile", "setting": "[4]; Structure A4 375 ppb", "result": "Slight bitter, cooling, umami, linger"}, {"measurement": "Flavor Profile", "setting": "[4]; Structure A4 500 ppb", "result": "Clear and moderate umami, slight bitter, cooling, linger"}, {"measurement": "Flavor Profile", "setting": "[4]; Structure A4 750 ppb", "result": "Clear and moderate umami, cooling, slightly soapy, slightly waxy"}, {"measurement": "Umami in water", "setting": "[4]; water solutions, all concentrations 100 ppb to 15 ppm", "result": "exhibited umami"}]}, {"smiles": "COc1ccc(NC(=O)C2(C(C)(C)C)CCCCC2)cc1", "note": "[Structure B4, 1-(tert-butyl)-N-(4-methoxyphenyl)cyclohexane-1-carboxamide]", "values": [{"measurement": "Flavor in water", "setting": "[4]; 375 ppb in water", "result": "slight umami, slight sweetness and bitter linger"}]}]}
